Test results: patent US8586611B2 (priority 2005, dated 2013)

Legend:
Assay type in all cases: in vivo
[1] = system: Erysiphe graminis f. sp. tritici; assay: Test E: wheat powdery mildew, spray the day before inoculation (disease rating, 100 = 100% disease control)
In short: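 Protective test: spores of E. graminis f. sp. tritici dusted on wheat seedlings one day after run-off spraying of test suspension (acetone/water with 250 ppm surfactant; 200 ppm = 500 g/ha). Ratings after 7 days in growth chamber at 20° C, 100 = full control, 0 = none, relative to controls.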

[2] = system: Pseudoperonospora cubensis; assay: Test A: cucumber downy mildew, spray the day before inoculation (disease rating, 100 = 100% disease control); settings: spray the day before inoculation, compounds without asterisk (not 40 or 10 ppm)
From the text: The test compounds were first dissolved in acetone in an amount equal to 3% of the final volume and then suspended at the desired concentration (in ppm) in acetone and purified water (50/50 mix by volume) containing 250 ppm of the surfactant Trem® 014 (polyhydric alcohol esters). The resulting test suspensions were then used in tests A-E. Spraying a 200 ppm test suspension to the point of run-off on the test plants was the equivalent of a rate of 500 g/ha.
The test suspension was sprayed to the point of run-off on cucumber seedlings. The following day the seedlings were inoculated with a spore suspension of Pseudoperonospora cubensis (the causal agent of cucumber downy mildew) and incubated in a saturated atmosphere at 20° C. for 24 h, and then moved to a growth chamber at 20° C. for 6 days, after which disease ratings were made.
(§1) Results for Tests A-F are given in Table A. In the table, a rating of 100 indicates 100% disease control and a rating of 0 indicates no disease control (relative to the controls). A dash (-) indicates no test results.

[3] = system: Plasmopara viticola; assay: Test B: grape downy mildew, spray 24 h after inoculation (disease rating, 100 = 100% disease control)
In short: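 This is a curative spray test, applied 24 h after inoculation. Compounds in 50/50 acetone–water with 250 ppm Trem 014 surfactant were sprayed to run-off on P. viticola-infected seedlings, with 200 ppm equating to 500 g/ha. Plants were kept 5 days in a 20 °C growth chamber, then 24 h humid, and scored 0–100 for disease control relative to controls.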

[4] = system: Phytophthora infestans; assay: whole plant or invertebrate; settings: tomato late blight
[5] = system: Pseudoperonospora cubensis; assay: Test F: cucumber downy mildew, DMSO/acetone/water test suspension, spray the day before inoculation (disease rating, 100 = 100% disease control)
From the text: The test compounds were first dissolved in dimethyl sulfoxide (DMSO) in an amount equal to 4% of the final volume and then suspended at the desired concentration (in ppm) in acetone and purified water (30/70 mix by volume). The resulting test suspensions were then used in test F. Spraying a 250 ppm test suspension on the test plants was the equivalent of a rate of 250 g/ha.
The test suspension was sprayed on cucumber seedlings. The following day the seedlings were inoculated with a spore suspension of Pseudoperonospora cubensis (the causal agent of cucumber downy mildew) and incubated in a saturated atmosphere at 20° C. for 24 h, and then moved to a growth chamber at 20° C. for 6 days, after which disease ratings were made.
as §1

[6] = system: Phytophthora infestans; assay: whole plant or invertebrate; settings: tomato late blight; remark: listed apart in the source
[7] = spray the day before inoculation, compounds without asterisk (not 40 or 10 ppm)
[8] = spray 24 h after inoculation, compounds without asterisk (not 40 or 10 ppm)
[9] = DMSO/acetone/water suspension, spray the day before inoculation, compounds without asterisk
[10] = spray 17 h after inoculation, compounds without asterisk (not 40 or 10 ppm)
[11] = sprayed the day before inoculation, 7 days at 20° C., unmarked compounds (no asterisk, not 40 or 10 ppm)
[12] = DMSO/acetone/water test suspension, sprayed the day before inoculation, unmarked compounds (no asterisk)
[13] = sprayed 24 h after inoculation, unmarked compounds (no asterisk, not 40 or 10 ppm)
[14] = sprayed 17 h after inoculation, unmarked compounds (no asterisk, not 40 or 10 ppm)
[15] = sprayed the day before inoculation, unmarked compounds (no asterisk, not 40 or 10 ppm)

## 2-[1-[(2,5-dichlorophenyl)acetyl]-4-piperidinyl]-N-methyl-N-[(1R)-1-phenylpropyl]-4-thiazolecarboxamide [Compound 110]
[1]; [7]
  Test E disease rating (100 = 100% disease control, 0 = no disease control): 21%
[2]
  Test A disease rating (100 = 100% disease control, 0 = no disease control): 0%
[3]; [8]
  Test B disease rating (100 = 100% disease control, 0 = no disease control): 53%
[4]; [7]
  Test C disease rating (100 = 100% disease control, 0 = no disease control): 0%

## 2-[1-[(2,5-dimethylphenyl)acetyl]-4-piperidinyl]-N-methyl-N-[(1R)-1,2,3,4-tetrahydro-1-naphthalenyl]-4-oxazolecarboxamide [Compound 153]
[1]; [7]
  Test E disease rating (100 = 100% disease control, 0 = no disease control): 0%
[2]
  Test A disease rating (100 = 100% disease control, 0 = no disease control): 82%
[3]; [8]
  Test B disease rating (100 = 100% disease control, 0 = no disease control): 28%
[4]; [7]
  Test C disease rating (100 = 100% disease control, 0 = no disease control): 0%

## 2-[1-[(2,5-dimethylphenyl)acetyl]-4-piperidinyl]-N-methyl-N-[(1R)-1-phenylpropyl]-4-thiazolecarboxamide [Compound 58]
[1]; [7]
  Test E disease rating (100 = 100% disease control, 0 = no disease control): 0%
[2]
  Test A disease rating (100 = 100% disease control, 0 = no disease control): 0%
[3]; [8]
  Test B disease rating (100 = 100% disease control, 0 = no disease control): 20%
[4]; [7]
  Test C disease rating (100 = 100% disease control, 0 = no disease control): 56%

## 2-[1-[(3,5-dichloro-1H-pyrazol-1-yl)acetyl]-4-piperidinyl]-N-methyl-N-[(1R)-1,2,3,4-tetrahydro-1-naphthalenyl]-4-thiazolecarboxamide [Compound 238]
[1]; [7]
  Test E disease rating (100 = 100% disease control, 0 = no disease control): 0%
[2]
  Test A disease rating (100 = 100% disease control, 0 = no disease control): 0%
[3]; [8]
  Test B disease rating (100 = 100% disease control, 0 = no disease control): 6%
[4]; [7]
  Test C disease rating (100 = 100% disease control, 0 = no disease control): 0%

## Cc1ccc(C)c(CC(=O)N2CCC(c3nc(C(=O)N(C)Cc4ccccc4)cs3)CC2)c1 [compound 167]
[1]; [7]
  Test E disease rating (100 = 100% disease control, 0 = no disease control): 0%
[5]; [9]
  Test F disease rating (100 = 100% disease control, 0 = no disease control): 99%
[3]; [8]
  Test B disease rating (100 = 100% disease control, 0 = no disease control): 27%
[6]; [10]
  Test D disease rating (100 = 100% disease control, 0 = no disease control): 0%
[4]; [7]
  Test C disease rating (100 = 100% disease control, 0 = no disease control): 97%

## Cc1ccc(C)c(CC(=O)N2CCC(c3nc(C(=O)N(C)C4CSCc5ccccc54)cs3)CC2)c1 (stereo not drawn) [compound 172]
[1]; [7]
  Test E disease rating (100 = 100% disease control, 0 = no disease control): 0%
[5]; [9]
  Test F disease rating (100 = 100% disease control, 0 = no disease control): 99%
[3]; [8]
  Test B disease rating (100 = 100% disease control, 0 = no disease control): 43%
[6]; [10]
  Test D disease rating (100 = 100% disease control, 0 = no disease control): 100%
[4]; [7]
  Test C disease rating (100 = 100% disease control, 0 = no disease control): 100%

## Cc1ccc(C)c(CC(=O)N2CCC(c3nc(C(=O)N(C)C4CCCc5c4ccc4ccccc54)cs3)CC2)c1 (stereo not drawn) [compound 173]
[1]; [7]
  Test E disease rating (100 = 100% disease control, 0 = no disease control): 0%
[5]; [9]
  Test F disease rating (100 = 100% disease control, 0 = no disease control): 95%
[3]; [8]
  Test B disease rating (100 = 100% disease control, 0 = no disease control): 0%
[6]; [10]
  Test D disease rating (100 = 100% disease control, 0 = no disease control): 0%
[4]; [7]
  Test C disease rating (100 = 100% disease control, 0 = no disease control): 0%

## Cc1ccc(C)c(CC(=O)N2CCC(c3nc(C(=O)N(C)C4CCCCC4)cs3)CC2)c1 [compound 174]
[1]; [7]
  Test E disease rating (100 = 100% disease control, 0 = no disease control): 0%
[5]; [9]
  Test F disease rating (100 = 100% disease control, 0 = no disease control): 90%
[3]; [8]
  Test B disease rating (100 = 100% disease control, 0 = no disease control): 68%
[6]; [10]
  Test D disease rating (100 = 100% disease control, 0 = no disease control): 63%
[4]; [7]
  Test C disease rating (100 = 100% disease control, 0 = no disease control): 100%

## Cc1ccc(C)c(CC(=O)N2CCC(c3nc(C(=O)N(C)C(C)(C)Cc4ccc(F)cc4)cs3)CC2)c1 [compound 175]
[1]; [7]
  Test E disease rating (100 = 100% disease control, 0 = no disease control): 0%
[5]; [9]
  Test F disease rating (100 = 100% disease control, 0 = no disease control): 43%
[3]; [8]
  Test B disease rating (100 = 100% disease control, 0 = no disease control): 93%
[6]; [10]
  Test D disease rating (100 = 100% disease control, 0 = no disease control): 0%
[4]; [7]
  Test C disease rating (100 = 100% disease control, 0 = no disease control): 95%

## Cc1ccc(C)c(CC(=O)N2CCC(c3nc(C(=O)N(C)C4CCCC(C)C4)cs3)CC2)c1 (stereo not drawn) [compound 176]
[1]; [7]
  Test E disease rating (100 = 100% disease control, 0 = no disease control): 0%
[5]; [9]
  Test F disease rating (100 = 100% disease control, 0 = no disease control): 49%
[3]; [8]
  Test B disease rating (100 = 100% disease control, 0 = no disease control): 15%
[6]; [10]
  Test D disease rating (100 = 100% disease control, 0 = no disease control): 24%
[4]; [7]
  Test C disease rating (100 = 100% disease control, 0 = no disease control): 95%

## Cc1ccc(C)c(CC(=O)N2CCC(c3nc(C(=O)N(C)C4CCCC(C)C4C)cs3)CC2)c1 (stereo not drawn) [compound 177]
[1]; [7]
  Test E disease rating (100 = 100% disease control, 0 = no disease control): 0%
[5]; [9]
  Test F disease rating (100 = 100% disease control, 0 = no disease control): 43%
[3]; [8]
  Test B disease rating (100 = 100% disease control, 0 = no disease control): 86%
[6]; [10]
  Test D disease rating (100 = 100% disease control, 0 = no disease control): 79%
[4]; [7]
  Test C disease rating (100 = 100% disease control, 0 = no disease control): 100%

## Cc1cc(C(F)(F)F)nn1CC(=O)N1CCC(c2nc(C(=O)N(C)C3CCCc4ccccc43)cs2)CC1 (stereo not drawn) [compound 187]
[1]; [7]
  Test E disease rating (100 = 100% disease control, 0 = no disease control): 0%
[5]; [9]
  Test F disease rating (100 = 100% disease control, 0 = no disease control): 93%
[3]; [8]
  Test B disease rating (100 = 100% disease control, 0 = no disease control): 98%
[6]; [10]
  Test D disease rating (100 = 100% disease control, 0 = no disease control): 99%
[4]; [7]
  Test C disease rating (100 = 100% disease control, 0 = no disease control): 100%

## Cc1cc(C(F)(F)F)nn1CC(=O)N1CCC(c2nc(C(=O)N(C)C3CCCc4cc(O)ccc43)cs2)CC1 (stereo not drawn) [compound 190]
[1]; [7]
  Test E disease rating (100 = 100% disease control, 0 = no disease control): 0%
[5]; [9]
  Test F disease rating (100 = 100% disease control, 0 = no disease control): 93%
[3]; [8]
  Test B disease rating (100 = 100% disease control, 0 = no disease control): 8%
[6]; [10]
  Test D disease rating (100 = 100% disease control, 0 = no disease control): 99%
[4]; [7]
  Test C disease rating (100 = 100% disease control, 0 = no disease control): 100%

## C[C@@H](NC(=O)c1csc(C2CCN(C(=O)Cc3cccc(Br)c3)CC2)n1)c1ccccc1C(F)(F)F [compound 275]
[1]; [11]
  Test E disease rating (100 = 100% disease control, 0 = no disease control): 0
[5]; [12]
  Test F disease rating (100 = 100% disease control, 0 = no disease control): 0
[3]; [13]
  Test B disease rating (100 = 100% disease control, 0 = no disease control): 30
[6]; [14]
  Test D disease rating (100 = 100% disease control, 0 = no disease control): 0
[4]; [15]
  Test C disease rating (100 = 100% disease control, 0 = no disease control): 9

## CC[C@@H](NC(=O)c1csc(C2CCN(C(=O)Cc3cccc(Br)c3)CC2)n1)c1ccccc1 [compound 278]
[1]; [11]
  Test E disease rating (100 = 100% disease control, 0 = no disease control): 0
[5]; [12]
  Test F disease rating (100 = 100% disease control, 0 = no disease control): 93
[3]; [13]
  Test B disease rating (100 = 100% disease control, 0 = no disease control): 0
[6]; [14]
  Test D disease rating (100 = 100% disease control, 0 = no disease control): 0
[4]; [15]
  Test C disease rating (100 = 100% disease control, 0 = no disease control): 33

## COc1ccc([C@@H](C)NC(=O)c2csc(C3CCN(C(=O)Cc4cccc(Br)c4)CC3)n2)cc1 [compound 279]
[1]; [11]
  Test E disease rating (100 = 100% disease control, 0 = no disease control): 0
[5]; [12]
  Test F disease rating (100 = 100% disease control, 0 = no disease control): 0
[3]; [13]
  Test B disease rating (100 = 100% disease control, 0 = no disease control): 0
[6]; [14]
  Test D disease rating (100 = 100% disease control, 0 = no disease control): 0
[4]; [15]
  Test C disease rating (100 = 100% disease control, 0 = no disease control): 0

## Cc1ccc(C)c(CC(=O)N2CCC(c3nc(C(=O)N[C@H](C)c4ccccc4)cs3)CC2)c1 [compound 283]
[1]; [11]
  Test E disease rating (100 = 100% disease control, 0 = no disease control): 0
[5]; [12]
  Test F disease rating (100 = 100% disease control, 0 = no disease control): 99
[3]; [13]
  Test B disease rating (100 = 100% disease control, 0 = no disease control): 48
[6]; [14]
  Test D disease rating (100 = 100% disease control, 0 = no disease control): 0
[4]; [15]
  Test C disease rating (100 = 100% disease control, 0 = no disease control): 84
